system: human monocyte stimulated cytokine production (TNF-α); test: Monocyte assay (LPS-stimulated TNF-α production); format: cell-based; settings: 300 nM, human monocytes, LPS
Protocol: Effect of IKK-β inhibition on human monocyte stimulated cytokine production was assessed as follows: Monocytes were isolated from heparinized whole blood by Ficoll gradient, followed by purification of CD14+ cells using MACS magnetic cell separation beads. Isolated monocytes were then adhered to 96-well culture plates at 1×10^6 cells/mL in RPMI 1640 10% FBS (JRH Biosciences, Lenexa Kans.) for 2 h. Test compounds are added to the wells 30 minutes prior to stimulation with a final vehicle concentration of 0.1% DMSO. Monocytes were activated by the addition of 200 ng/mL endotoxin (LPS; E. coli serotype 026:B6) (Sigma, St. Louis, Mo.) and incubated for 24 hrs at 37 C. Cell-free supernates were analyzed by Alphascreen™ (Perkin Elmer, Waltham, Mass.) for TNF-α using R&D Systems matched pair Abs. Viability of the cells was determined by 10% trypan blue exclusion.

`NC(=O)c1cc(-c2csc(CN3CCC3)c2)cc2c(C3CCS(=O)(=O)CC3)c[nH]c12` [Example 70, 5-[5-(1-Azetidinylmethyl)-3-thienyl]-3-(1,1-dioxidotetrahydro-2H-thiopyran-4-yl)-1H-indole-7-carboxamide] and `NC(=O)c1cc(-c2csc(CN3CCCCCC3)c2)cc2c(C3CCS(=O)(=O)C3)c[nH]c12` (stereo not shown) [Example 186, 3-(1,1-Dioxidotetrahydro-3-thienyl)-5-[5-(hexahydro-1H-azepin-1-ylmethyl)-3-thienyl]-1H-indole-7-carboxamide] fall in the same range of inhibition at 0.3 µM: 0 to 100% for the first, 0 to 100% for the second.

same assay, conditions: human CD14+ monocytes, 200 ng/mL LPS, 24 hrs, values given as 'about', read-out: pIC50 in the monocyte assay (converted)

`CC(C)[C@H]1C[C@H](c2c[nH]c3c(C(N)=O)cc(-c4cccs4)cc23)CCS1(=O)=O` (racemic) [Example 245, (racemic)-3-[trans-2-(1-Methylethyl)-1,1-dioxidotetrahydro-2H-thiopyran-4-yl]-5-(2-thienyl)-1H-indole-7-carboxamide] and `CC(C)[C@@H]1C[C@H](c2c[nH]c3c(C(N)=O)cc(-c4ccsc4)cc23)CCS1(=O)=O` (racemic) [Example 246, (racemic)-3-[cis-2-(1-Methylethyl)-1,1-dioxidotetrahydro-2H-thiopyran-4-yl]-5-(3-thienyl)-1H-indole-7-carboxamide] fall in the same range of IC50: 5.01 to 1000 nM for the first, 5.01 to 1000 nM for the second.

`CC(C)N(C)Cc1cc(-c2cc(C(N)=O)c3[nH]cc(C4CCS(=O)(=O)CC4)c3c2)cs1` [Example 74, 3-(1,1-Dioxidotetrahydro-2H-thiopyran-4-yl)-5-(5-{[methyl(1-methylethyl)amino]methyl}-3-thienyl)-1H-indole-7-carboxamide] and `CN(C)Cc1cc(-c2cc(C(N)=O)c3[nH]cc(C4CCS(=O)(=O)CC4)c3c2)cs1` [Example 73, 5-{5-[(Dimethylamino)methyl]-3-thienyl}-3-(1,1-dioxidotetrahydro-2H-thiopyran-4-yl)-1H-indole-7-carboxamide] fall in the same range of IC50: 5.01 to 1000 nM for the first, 5.01 to 1000 nM for the second.

First: NC(=O)c1cc(-c2ccoc2)cc2c(C3CCS(=O)(=O)C3)c[nH]c12 (stereo not shown) [Example 189, 3-(1,1-Dioxidotetrahydro-3-thienyl)-5-(3-furanyl)-1H-indole-7-carboxamide]
Second: CC1(C)CC(c2c[nH]c3c(C(N)=O)cc(-c4ccoc4)cc23)CCS1(=O)=O (stereo not shown) [Example 228, 3-(2,2-Dimethyl-1,1-dioxidotetrahydro-2H-thiopyran-4-yl)-5-(3-furanyl)-1H-indole-7-carboxamide]
The IC50 of the first is higher: > 1000 nM for the first, 5.01 to 1000 nM for the second.

`CC1(C)CC(c2c[nH]c3c(C(N)=O)cc(-c4csc(CN5CCC5)c4)cc23)CCS1(=O)=O` (stereo not shown) [Example 234, 5-[5-(1-Azetidinylmethyl)-3-thienyl]-3-(2,2-dimethyl-1,1-dioxidotetrahydro-2H-thiopyran-4-yl)-1H-indole-7-carboxamide] and `NC(=O)c1cc(-c2csc(CN3CCCC3)c2)cc2c(C3CC4CCC(C3)S4(=O)=O)c[nH]c12` (stereo not drawn) [Example 205, 3-[(3-endo)-8,8-Dioxido-8-thiabicyclo[3.2.1]oct-3-yl]-5-[5-(1-pyrrolidinylmethyl)-3-thienyl]-1H-indole-7-carboxamide] fall in the same range of IC50: 5.01 to 1000 nM for the first, 5.01 to 1000 nM for the second.

First: CC(C)(O)CCc1ccc(-c2cc(C(N)=O)c3[nH]cc(C4CCS(=O)(=O)CC4)c3c2)s1 [Example 66, 3-(1,1-Dioxidotetrahydro-2H-thiopyran-4-yl)-5-[5-(3-hydroxy-3-methylbutyl)-2-thienyl]-1H-indole-7-carboxamide]
Second: NC(=O)c1cc(-c2ccsc2)cc2c([C@H]3CCS(=O)(=O)[C@@H](c4ccccc4)C3)c[nH]c12 [Example 248, 3-[(2R,4S)1,1-dioxido-2-phenyltetrahydro-2H-thiopyran-4-yl]-5-(3-thienyl)-1H-indole-7-carboxamide]
The IC50 of the first is lower: 5.01 to 1000 nM for the first, > 1000 nM for the second.

`NC(=O)c1cc(-c2ccsc2)cc2c([C@@H]3CCS(=O)(=O)[C@H](c4ccccc4)C3)c[nH]c12` [Example 247, 3-[(2S,4R)1,1-dioxido-2-phenyltetrahydro-2H-thiopyran-4-yl]-5-(3-thienyl)-1H-indole-7-carboxamide] was tested, and the IC50 was 5.01 to 1000 nM.
